According to a melting point compilation (Tetko et al.; mined from patent text by program, amines drawn as free bases though some values may be those of a salt):

SMILES	melting point [°C]
Cc1cnc2c(C#N)cnn2c1-c1cccc(C(F)(F)F)c1	191 to 193
N#Cc1ccc(CCCN)cc1	72 to 74
CCOC(=O)c1cc(C)c(Cl)nc1Nc1ccccc1	116 to 118
CC(=O)N1CCC(N(C)S(C)(=O)=O)CC1	132
CN(C)C=NS(=O)(=O)c1c(C(F)(F)F)nc2ccc(Cl)nn12	204 to 205
Cc1ccc(C2NC(C(=O)O)C(C)(C)S2)cc1 (stereo not given)	89 to 90
CCn1cc(C(=O)O)c(=O)c2cc(F)c(N)nc21	299 to 303
CC(C)N(CCOc1ccc2oc3ccc(OCCN(C(C)C)C(C)C)cc3c2c1)C(C)C	47 to 49
NC1=Nc2ccccc2CC1	135 to 136
CCC(O)(c1ccc(F)cc1)c1ccc(OCc2ccccc2)cc1 (stereo not given)	56 to 57
O=C(O)COCC(Cc1ccccc1)NC(=O)OCc1ccccc1 (stereo not given)	96 to 100
c1ccc([C@H]2C[C@@H]2Nc2cc(-c3ccco3)nc(-c3nccs3)n2)cc1 (relative stereo)	90 to 91.9
CC#CCn1c(Oc2cc(C)cc(C)c2)c(C(C)C)c(=O)[nH]c1=O	158 to 160
CC(C)(Oc1ccc([Si](C)(C)C)cc1)C(=O)O	92 to 93
CCC(NS(=O)(=O)c1ccc(F)cc1)P(=O)(Oc1ccccc1)Oc1ccccc1 (stereo not given)	148 to 151
COc1cc2ncc(C#N)c(Nc3cccc(C(N)=O)c3)c2cc1OC	253 to 255
Cc1ccc([N+](=O)[O-])cc1NC(=N)N	135 to 142
CC(C)(C)OC(=O)NC(CNC(=O)c1ccccc1)C(=O)O (stereo not given)	110 to 111
CC(=O)N1CCN(c2ccc(Nc3nccc(-c4sc(-c5cccs5)nc4C)n3)cc2)CC1	134 to 136
O=Cc1ccc(NS(=O)(=O)c2ccccc2)cc1O	150 to 157
CCOC(=O)COc1ccc(SCc2cccc3nc(-c4ccc(C(F)(F)F)cc4)oc23)cc1C	180 to 182
O=C(O)c1ccc(SC(Cn2ccnc2)c2ccc(C(F)(F)F)cc2)cc1 (stereo not given)	92 to 95
O=C(CCCCCCOc1ccc2c(c1)[nH]c1ccccc12)NO	198
COc1cc(O)ccc1N	168 to 170
CCOCc1nc2c(N)nc3ccccc3c2n1CCCC(N)=O	233 to 235

SMILES	melting point [°C]
Cc1nnc2ccc(-c3cccc(C(F)(F)F)c3)cn12	185 to 187
Cc1cc(SCc2ccc(-c3ccc(C(F)(F)F)cn3)cc2)c2c(c1OCC(=O)O)CCO2	94 to 95
CNc1nc(-c2cccc(C(=O)Nc3cccnc3)c2)c2cc(OC)c(OC)cc2n1	238 to 240
O=C(Nc1n[nH]c(=S)s1)NC(Cc1ccccc1)C(=O)NCCCc1ccccc1 (stereo not given)	190 to 191
CCN1C(=O)N=NC1c1cccc(F)c1 (stereo not given)	135 to 140
CCn1nc(-c2cccc(Cl)c2)c2ncccc2c1=O	117 to 118
COC(=O)c1ccccc1-c1cc(-c2ccc(OC)cc2)[nH]n1	92 to 93
COc1ccc(-c2nn(CC3CC3)c(=O)c(C(N)=O)c2-c2ccc(OC)cc2)cc1	174 to 175
O=C(Nc1ccc(N(CCCl)CCCl)cc1)Nc1cc(CO)cc(Nc2c3ccccc3nc3ccccc23)c1	173 to 175
N#CC(C(=O)NCC(=O)O)C(=O)c1nn(-c2ccccc2)c2c1CSc1ccccc1-2 (stereo not given)	224 to 226
O=C(Oc1ccccc1)C(=O)Oc1ccccc1	132 to 135
CCCCn1c(=O)c2cc(OC)c(OC)cc2c2nnc3cc4c(cc3c21)OCO4	299
Cc1ccnc2c(O)cccc12	135 to 136
CN(C)C1(Cc2ccccc2)CCC(c2[nH]c3ccccc3c2Cc2ccccc2)CC1 (stereo not given)	140 to 143
COc1ccc(C=NO)cc1OCCCCCc1ccccc1	65 to 67
CC(=O)Oc1ccc(Cl)cc1C(=O)O	146 to 148
COc1ccc(-c2noc(C)c2-c2ccc(OC)cc2)cc1	95 to 99
Clc1ccc(C=CC=Cc2ccccc2)cc1	161
COc1cc2occ(-c3ccccc3)c(=O)c2c(Cl)c1Cl	216 to 218
Cc1nc(CCn2cnc3c2c(=O)[nH]c(=O)n3C)no1	258 to 260
O=C(c1ccc(Cl)cc1)C(Cc1ccc(Cl)cc1)c1cccnc1 (stereo not given)	98 to 99
Cc1ccnc(Nc2nc(-c3ccc4c(c3)OCCO4)cs2)c1	230 to 240
COC(=O)CCNc1ccccc1CNC(=O)C1Cc2ccccc2N1S(=O)(=O)c1ccc(-c2ccc(F)cc2Cl)cc1 (stereo not given)	70 to 73
COc1ccc(-c2ccccc2)cc1F	84.5 to 86
Cc1cccc(SSc2cccc(C)c2C(=O)Nc2ccc(S(N)(=O)=O)cc2)c1C(=O)Nc1ccc(S(N)(=O)=O)cc1	273 to 275

SMILES	melting point [°C]
COc1ccc(S(=O)(=O)Nc2cccnc2Nc2ccccc2F)cc1	148 to 150
CC(C)c1cc(CCC(=O)O)n(Cc2ccc(C(F)(F)F)cc2Cl)n1	117 to 119
Oc1cnc(C(F)(F)F)nc1	179 to 181
COc1cc(C2CCN(C3COC3)CC2)ccc1Nc1ncc2ccc(-c3ccccc3OC)n2n1	78 to 85
COC(=O)c1[nH]c2c(OCc3ccccc3)cc([N+](=O)[O-])c(CCCl)c2c1C(=O)OC	122 to 128
CCOc1cc(Oc2ccc(C(F)(F)F)cn2)ccc1CCCOc1nn(CC)cc1CC(=O)O	82 to 83
CN1C(=O)CCC(=O)N1c1cc(-c2ccnc(Nc3cccc(Cl)c3)n2)ccn1	201 to 204
CCN(CC)C(=O)CCc1nc(-c2cccs2)nc2ccccc12	106
COc1cc(C(=O)Nc2c(Cl)cc3cn[nH]c3c2C(=O)NC2(C)CSC2)n(-c2ncccc2Cl)n1	162 to 165
Cc1oc2c(C)c(C)c(NC(=O)c3ccc(F)cc3)c(C)c2c1-c1ccc(F)cc1	232 to 234
CC(=O)NCc1ccc(CN2CCN(c3ccc(F)cc3)CC2)cc1	164 to 166
Cc1c(C#N)oc2c(-c3ccc(F)cc3)c(-c3ccc(S(C)(=O)=O)cc3)nn12	236 to 238
CC(C)c1ccc(N(Cc2ccc(N(C)C)cc2)C(=O)C2CCCc3ccc(C(C)C)cc32)cc1 (stereo not given)	123 to 125
CCCC(Oc1ccccc1)C(=O)NCCO[N+](=O)[O-] (stereo not given)	68 to 70
Nc1c(-c2cccs2)nsc1C(=O)O	221 to 224
O=C(O)C(CC1CCCC1)c1ccc(S(=O)(=O)C(F)(F)F)cc1 (stereo not given)	143 to 145
CC(=O)c1ccc(-n2cnc(C)c2)cc1	100
O=C(O)c1ccc(NC(=O)c2ccccc2-c2ccccc2)cc1Cl	217 to 219
COc1ccc(C=CS(=O)(=O)N2C(=O)CCC2OC(C)C)cc1 (stereo not given)	101 to 103
CSc1ccc(-c2ccccn2)c2c1C(=O)CC(C)(C)C2	152 to 154
COc1cc(CC(=O)Nc2ccc(C(C)CC(=O)O)cc2)ccc1NC(=O)N1CCc2ccccc21 (stereo not given)	152 to 154
CC1(C)OC(=O)Nc2ccc(-c3cc(F)cc([N+](=O)[O-])c3)cc21	260 to 261
N#Cc1cc[nH]c1-c1cc2ccccc2o1	157 to 160
O=c1nc(N2CCN(c3cccc(C(F)(F)F)c3)CC2)sc2c([N+](=O)[O-])cc(C(F)(F)F)cc12	201 to 203
NNc1nc2cc(Cl)ccc2nc1Cl	< 250

SMILES	melting point [°C]
COc1c([N+](=O)[O-])cc(C(C)(C)C)cc1[N+](=O)[O-]	> 75
CCOC(=O)C1=C(C)NC(COC(C)=O)=C(C(=O)OCC)C1c1cccc([N+](=O)[O-])c1 (stereo not given)	133 to 135
CCCCc1oc2ccccc2c1C(=O)NCc1ccc2c(-c3ccc(OC)cc3)c(OC(Cc3ccccc3)C(=O)OC)ccc2c1 (stereo not given)	103 to 105
O=c1[nH]c2ncc(-c3ccc4cc[nH]c4c3)nc2n1CC1CCCCC1	359 to 363
O=C(OC(Cn1ccnc1)CS(=O)(=O)c1ccccc1)c1ccc(Cl)cc1Cl (stereo not given)	106 to 109
Clc1ccc2c(c1)ncc1ncsc12	199 to 200
ClCCOc1ccc(OCCCl)c(Cl)c1	135 to 137
O=C1Nc2cc(Cl)ccc2C(=O)C1c1cccnc1 (stereo not given)	> 340
COc1ccc2cc(-c3cc4c(cc3[N+](=O)[O-])OCO4)ccc2c1	165 to 167
Cc1cccnc1OC(=O)Oc1ncccc1C	110 to 112
CCN(CC)CCNC(=O)c1cccc2c(=O)c(C)c(-c3cccc(C)c3)oc12	79.5 to 86
CC(=O)N(C)C1CCC(=O)c2ccccc21 (stereo not given)	101 to 103
CCc1ncc(CCCOc2c(C)cc(-c3nnn(C)n3)cc2C)n1C	96 to 98
COc1ccc(N2CCN(c3c(C)c(C)c4c(c3C)CC(C)(CN)O4)CC2)cc1 (stereo not given)	134 to 137
CCCNC(=O)C(C)(C)n1cc(C)c(-c2ccccc2)n1	47 to 50
CSCCOC(=O)CSc1cc(N=c2sc(=O)n3n2CCCC3)ccc1Cl	57 to 58
CC(C)(C)OC(=O)N1CCC(Sc2cc(C(C)(C)C)c(O)c(C(C)(C)C)c2)CC1	151 to 152
CCN1c2ncc(N)cc2C(=O)N(C)c2cccnc21	189 to 191
O=C1c2ccc([N+](=O)[O-])cc2COc2cc(-n3cnnn3)ccc21	123 to 126
CC(C)NC(=O)c1cnc(N2CCC(N3C(=O)OCc4ccccc43)CC2)c(Cl)c1	216
CCc1noc(-c2ncc3[nH]c4ccccc4c3n2)n1	250 to 257
CCCn1cc(C2(c3cccc(Br)c3)N=C(N)N(C)C2=O)cc1C(=O)CC (stereo not given)	260
CCOC(=O)c1ccc(N2C(=O)CCC2CO)c(NC(=NC(=O)OC(C)(C)C)NC(=O)OC(C)(C)C)c1 (stereo not given)	104 to 110
O=C1CC(c2cccc(-n3ccnn3)c2)=Nc2ccc(-c3cccc(F)c3F)cc2N1	230
CCCCc1nc(C(=O)C(C)(C)C)c(C#N)n1Cc1ccc(-c2ccccc2-c2nnnn2C(c2ccccc2)(c2ccccc2)c2ccccc2)cc1	103 to 105
